By melting point is commonly meant the temperature of the solid-liquid transition.

Each structure is given as a SMILES string.

The text below walks through data of a melting point compilation (Tetko et al.; mined from patent text by program, amines drawn as free bases though some values may be those of a salt).

With `CN1C(=O)c2ccccc2C[C@H]1C(=O)O`, the melting point lay in the range of 173 to 175 °C.
The figure for `O=C(C=CC[C@H]1NC(=O)[C@@H]1N1C(=O)c2ccccc2C1=O)OCc1ccccc1` is 115 to 120 °C; for `OCCN1CCN(c2nn(-c3ccc(C(F)(F)F)cc3)c3ccccc23)CC1` it is 82 to 84 °C; for `Cc1ccc(CC(CC(=O)N2CC3CCCCC3C2)C(=O)O)cc1` (stereo not drawn) it is 133 to 134 °C.
With `COc1ccc(Nc2c(N)cc(C(=O)O)cc2S(N)(=O)=O)cc1`, the melting point worked out at 214 °C.
The figure for `Cc1c(F)c(F)c(C)c(C(=O)O)c1F` is 118 to 119 °C; for `O=C1CCCC(=O)N1c1cc(Cl)cc(Cl)c1` it is 172 to 174 °C; for `Cn1cnc2c(N(Cc3ccccc3)Cc3ccccc3)nc(Cl)nc21` it is 144 to 146 °C.
To `CCOC(=O)c1cc(N)c(N)nc1C(=O)OCC` belongs 143 to 146 °C.
With `CCCCCC1CCC(CCC2OCC(CCC)CO2)CC1` (stereo not drawn), the melting point is 44 °C.
The molecule `Cc1c(C(=O)Nc2ccc(N3CCC(CCO)CC3)c(C#N)c2)cnn1-c1ccc(F)cc1` came in with a melting point of 186 °C.
The figure for `Cc1nc(Cn2c(=O)sc3cc(F)c(N4C(=O)C5=C(CCCC5)C4=O)cc32)no1` is 198 to 199 °C; for `Cc1cc(-c2ncn(Cc3ccc(F)cc3)n2)sc1C(=O)NCc1cccnc1` it is 154 to 155 °C; for `Fc1ccc(Cn2c(NC3CCN(CCOc4ccc5ccccc5n4)CC3)nc3ccccc32)cc1` it is 150 °C.
The figure for `CC#CC(=O)N[C@H]1CC[C@H](CCN2CCC(c3cccc4c3CCO4)CC2)CC1` is 195 °C; for `CSc1c(C#N)cnn1-c1ccc(C(F)(F)F)cc1Cl` it is 59 to 62 °C; for `Cn1c(C(F)F)nn(-c2cc(O)c(Cl)cc2Cl)c1=O` it is 176 to 179 °C.
As for `Clc1cccc(CSc2ccncc2)c1`, the melting point lay in the range of 222 to 224 °C.
Take `OCc1cc(OCc2ccccc2)nn1-c1ccccc1`: the melting point lay in the range of 87 to 88 °C.
`CCc1cc(C)cc(CC)c1C1=C(OCc2ccccc2)C2CC(C=CC(C)=O)CC2C1=O` (stereo not drawn) displayed a melting point of 60 °C.
The figure for `CC(C)(C)NCCCNC(=O)Cn1cnc(-c2ccccc2)c1-c1ccccc1` is 94 to 96 °C.
To `COc1ccc(-c2ccc(C(=O)O)c(OC)c2)cc1OC` belongs 134 to 135 °C.
To `CC(C)=C1Cc2ccc3nc(C)oc3c2C1=O` belongs 156 to 159 °C; to `N#Cc1ccc2nc3c(c(=O)n2c1)SCC3`, 261 to 263 °C.
In turn, `CCNC(=O)c1ccc(F)c(Cl)c1` showed a melting point of 102 °C.
In turn, `O=C(NCc1ccc(Cl)cc1)c1cnc2sc(C#CCO)cc2c1O` registered a melting point of 233 to 236 °C.
To `COc1cc2c(cc1OC)S(=O)(=O)CCC(C(=O)N1CCN(C(=O)c3cc(OC)c(OC)c(OC)c3)CC1)=C2` belongs 226 to 229 °C; to `COc1cc(C#N)c(N=C(C)N2CCc3cc(OC)c(OCc4ccccc4)cc3C2)cc1OC`, 72 to 73 °C; to `COC(OC)c1cccc(NCc2ccccc2)c1`, 55 to 56 °C.
To `CCCc1nnc2ccc(-c3ccccc3)nn12` belongs 123 to 125 °C; to `CCN1C(=O)C(C)(C)C(=O)N(C)c2cc(CN(CCn3ccc4oc(C)cc4c3=O)CCn3ccc4oc(C)cc4c3=O)ccc21`, 160 to 165 °C; to `Fc1cccc(F)c1-c1nccc(-c2ccc(Br)cc2)n1`, 130 to 131 °C.
Molecule `CCCN1CC(C)=CC2=C1N1CN(OC)C=C1N=N2` showed a melting point of 163 to 165 °C.
Turning to `Oc1ccc(-c2cnc(NC(=S)Cc3ccccc3)c(Cc3ccccc3)n2)cc1`, the melting point was 195 to 198 °C.
The figure for `C=CCn1c(CC)nc2nc3cc(Cl)ccc3nc21` is 117 to 121 °C; for `COc1ccc(-c2cccc3nc(Nc4cc(OC)c(OC)c(OC)c4)oc23)cc1` it is 179 to 182 °C.
To `CSc1ncc(Sc2nc(C)c(CC(=O)O)s2)c(C(=O)O)n1` belongs 238 to 239 °C.
To `CCOC(=O)c1ccc(NCCC(c2ccc(Cl)cc2)c2ccc(Cl)cc2)cc1` belongs 112 to 117 °C; to `CC(C)(C)CCCC(=O)Cn1ccnc1`, 45 to 46 °C.
For `Cc1c(C(=O)N(CC(=O)O)c2ccc(N3CCC(O)CC3)c(C#N)c2)cnn1-c1ccc(F)cc1`, the melting point is 155 to 158 °C.
To `Cc1c(N)cccc1-c1ccnc(Nc2ccc(C(=O)N3CCOCC3)cc2)n1` belongs 183 to 184 °C; to `O=[N+]([O-])C=C(NCCO)NCCO`, 145 to 146 °C.
The figure for `COc1cc2c(Nc3cccc(Cl)c3F)ncnc2cc1OC1CCN(C(=O)[C@@H](C)O)CC1` is 107 to 111 °C; for `C=CC(C)(C)c1cc(CCC(=O)c2ccc(O)cc2)c(OC)cc1O` it is 154 °C.
In turn, `CC1CNc2c(cccc2S(=O)(=O)N[C@@H](CCCNC(=N)N)C(=O)N2CC[C@@H](C)C[C@@H]2C(=O)O)C1` (stereo partly drawn) had a melting point of 188 to 191 °C.
The figure for `CC(C)(C)c1cc(OCc2cccc(C(=O)O)c2)cc(C(C)(C)C)c1` is 167 to 169 °C; for `CC(C)c1cc(Cl)cc(C(C)C)c1NC(=O)NS(=O)(=O)c1cccc(S(N)(=O)=O)c1` it is 172 to 177 °C.
To `CN(CCSc1ccc(NS(C)(=O)=O)cc1)CCc1ccc(NS(C)(=O)=O)cc1` belongs 160 to 163 °C; to `CCCN(CCC)CCCOc1ccc(S(=O)(=O)c2c(C)cn3ccccc23)cc1`, 107 to 108 °C.
The figure for `CC(=O)Nc1cc2c(cc1Br)C(Nc1ccc(C(=O)OC(C)(C)C)c(F)c1)CC2` (stereo not drawn) is more than 70 °C; for `CN(c1ccccc1)c1nc(N2CCOCC2)nc(-n2ccnc2)n1` it is 119 to 120 °C; for `N#Cc1cc(/C=C/C(c2cc(Cl)c(Cl)c(Cl)c2)C(F)(F)F)ccc1-n1cnc(NC(=O)C2CC2)n1` (stereo not drawn) it is 109 to 112 °C.
In turn, `CCOC(=O)CCCCC(=O)c1c(CBr)n(C(C)=O)c(=O)n1C(C)=O` showed a melting point of 114 to 115 °C.
Take `CSc1nccc(C(C)=O)n1`: the melting point came to 35 °C.
The figure for `O=C(O)c1cccc2c(-c3ccccc3)c([N+](=O)[O-])oc12` is 271 to 272 °C; for `c1ccc(-c2ccc(Cc3ccco3)[nH]2)cc1` it is 79 to 80 °C; for `COc1ccc(-c2sc3cc(OC)ccc3c2C(=O)c2c(OC)cccc2OC)cc1` it is 146 to 152 °C.
The figure for `Cc1nc(C=Cc2nc3ccc(F)cc3c(=O)n2-c2ccccc2Cl)cs1` is 231 to 232 °C; for `CCC12CCC3=C(CCc4cc(OC)ccc43)C1=CCC2=O` (stereo not drawn) it is 77 to 80 °C; for `O=C1N=CC(OCc2ccccn2)(C(F)(F)F)c2cc(Cl)ccc2N1` (stereo not drawn) it is 233 to 235 °C.
Regarding `CCN(CC)c1ccc(-c2cc(-c3ccc(C(=O)O)cc3)ccc2CCCN)cc1C(C)(C)C`, the melting point was found to be 272 °C.
To `O=C(O)c1cccc(COc2cccc(OCc3ccc4ccccc4n3)c2)c1` belongs 149 to 151 °C; to `O=C(O)Cc1ccc(NC(=O)CCc2cnn(-c3ccccc3)c2-c2ccccc2)cc1`, 199 to 201 °C; to `CC(C(=O)NC1CC(C(=O)O)Nc2cc(Cl)cc(Cl)c21)c1ccccc1` (stereo not drawn), 210 to 212 °C.
Take `CCOC(=O)c1ccc2c(C=C[N+](=O)[O-])c[nH]c2c1`: the melting point was found to be 241 °C.
On to `Nc1ccc2c3c(cccc13)CC2`, for which the melting point is 178 to 179 °C.
The figure for `CCOC(=O)c1ncc2[nH]c3cccc(COC)c3c2c1C` is 133 to 135 °C; for `O=C(O)CCc1oc2cc(O)ccc2c(=O)c1C(=O)O` it is 218 to 219 °C.
The molecule `CCOC(=O)C1CN(C(=O)c2ccccc2)CC1c1ccc(NC(=O)Cc2ccc(NC(=O)Nc3ccccc3C)c(OC)c2)cc1` (stereo not drawn) gave a melting point of 130 °C.
For the molecule `CC(C)(C)OC(=O)NC1CCN(Cc2ccccc2)C1` (stereo not drawn), the melting point was 114 to 115 °C.
In turn, `Cc1ccc(S(=O)(=O)N2CCC[C@H]2C(=O)N[C@@H](Cc2ccc(OCCN3CCCCCC3)cc2)C(=O)O)cc1` gave a melting point of 105 to 107 °C.
For `c1ccc2c(-n3cncn3)ccnc2c1`, the melting point fell in the range of 147 to 149 °C.
The figure for `COc1cccc(CNC(=O)c2nc3scc(-c4cccc(-c5ccc(C(=O)O)cc5)c4)c3c(=O)[nH]2)c1` is 259 to 260 °C.
Take `CC1=C(/C=C/C(C)=C/C=C\c2ccc(C(=O)O)cc2)C(C)(C)CCC1`: the melting point stood at 179 °C.
For the molecule `O=[N+]([O-])c1ccc2c(-n3ccnc3)nnc(NCc3ccc4c(c3)OCO4)c2c1`, the melting point lay within 154 to 156 °C.
The figure for `CCCc1nn(-c2ccc(C(F)(F)F)cn2)cc1CCCOc1nn(C2CCCCC2)cc1CC(=O)O` is 127 to 128 °C; for `c1cc2sc(C3OCCO3)cc2s1` it is 88 to 90 °C; for `O=C(Nc1ccccc1)N1CCN=C1CSc1ccccc1` it is 117 to 119 °C.
On to `CCCCCCC(C)(C)c1cc(OCc2ccccc2)c2c(c1)OC(C)(C)CC2=O`, for which the melting point was 52 to 52.5 °C.
The figure for `CSc1ccc2c(=O)cc(C(=O)N[C@H]3CCN(C(=O)c4cc(C(F)(F)F)cc(C(F)(F)F)c4)[C@H](Cc4ccc(Cl)cc4)C3)oc2c1` is 137 to 140 °C; for `Cc1cccc(NC(=O)Nc2nnc(C(F)(F)F)s2)c1` it is 255 to 257 °C.
The figure for `Cc1ccc(-c2ncc3c(n2)CCCCC3)nc1-c1ccncc1` is 198 to 200 °C.
To `O=c1c2ccccc2[nH]c2c1cnn2-c1ccccn1` belongs 240 to 242 °C.
`Cc1noc(NC(=O)N2CCN(c3cc(-c4cccc(F)c4F)ncn3)CC2)c1C` had a melting point of 210 to 211 °C.
Turning to `CCOC(=O)N=C(NC(=O)Nc1ccc(C)cc1)SCC`, the melting point was in the range of 110 to 112 °C.
To `CC[C@@]12CC(=O)[C@](O)(c3ccccc3)C[C@H]1CCc1cc(O)ccc12` belongs 97 to 98 °C; to `Nc1ccc2c(c1)COc1cc(Nc3ccc(F)cc3F)ccc1C2=O`, 184 to 193 °C.
The molecule `Cc1nc2ncc(C(=O)NCc3ccc(Cl)cc3)c(O)c2cc1Br` yielded a melting point of 269 to 270 °C.
